# Measured values reported in PubChem BioAssay (NCI).
#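 A five-concentration, 48-hour dose response in 96-well plates underlies each endpoint, interpolated linearly between surrounding concentrations. Definition used: TGI = concentration required for complete inhibition of growth.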
# Columns and labels:
# Experiment in all cases: NCI-60 cell line screen, 48 h
# HOP-62 NSCLC = system: HOP-62 NSCLC
# RPMI-8226 leukemia = system: RPMI-8226 leukemia
# HCC-2998 colon = system: HCC-2998 colon
# U251 CNS = system: U251 CNS
# T-47D breast = system: T-47D breast
# LXFL 529 NSCLC = system: LXFL 529 NSCLC
# SK-OV-3 ovarian = system: SK-OV-3 ovarian
# SF-539 CNS = system: SF-539 CNS
# SNB-19 CNS = system: SNB-19 CNS
# IGROV1 ovarian = system: IGROV1 ovarian
# M14 melanoma = system: M14 melanoma
# MOLT-4 leukemia = system: MOLT-4 leukemia
# HCT-15 colon = system: HCT-15 colon
# SK-MEL-2 melanoma = system: SK-MEL-2 melanoma
# CAKI-1 renal = system: CAKI-1 renal
# KM20L2 colon = system: KM20L2 colon
# SN12C renal = system: SN12C renal
# NCI-H226 lung = system: NCI-H226 lung
# EKVX NSCLC = system: EKVX NSCLC
# UACC-62 melanoma = system: UACC-62 melanoma
# SNB-75 CNS = system: SNB-75 CNS
# MALME-3M melanoma = system: MALME-3M melanoma
# HCT-116 colon = system: HCT-116 colon
# MCF7 breast = system: MCF7 breast
# SK-MEL-28 melanoma = system: SK-MEL-28 melanoma
# A498 renal = system: A498 renal
# HT29 colon = system: HT29 colon
# UACC-257 melanoma = system: UACC-257 melanoma
# CCRF-CEM leukemia = system: CCRF-CEM leukemia
# SF-295 CNS = system: SF-295 CNS
# COLO 205 colon = system: COLO 205 colon
# KM12 colon = system: KM12 colon
# 786-0 renal = system: 786-0 renal
# LOX IMVI melanoma = system: LOX IMVI melanoma
# MDA-MB-435 = system: MDA-MB-435
# BT-549 breast = system: BT-549 breast
# OVCAR-5 ovarian = system: OVCAR-5 ovarian
# HL-60(TB) leukemia = system: HL-60(TB) leukemia
# A549 NSCLC = system: A549 NSCLC
# SR leukemia = system: SR leukemia
# HS 578T breast = system: HS 578T breast
# HOP-92 NSCLC = system: HOP-92 NSCLC
# RXF 393 renal = system: RXF 393 renal
# DMS 273 small cell lung = system: DMS 273 small cell lung
# NCI-H522 lung = system: NCI-H522 lung
# SF-268 CNS = system: SF-268 CNS
# OVCAR-8 ovarian = system: OVCAR-8 ovarian
# NCI/ADR-RES ovarian = system: NCI/ADR-RES ovarian
# ACHN renal = system: ACHN renal
# NCI-H23 lung = system: NCI-H23 lung
# OVCAR-3 ovarian = system: OVCAR-3 ovarian
# TK-10 renal = system: TK-10 renal
# SK-MEL-5 melanoma = system: SK-MEL-5 melanoma
# MDA-N = system: MDA-N
# XF 498 CNS = system: XF 498 CNS
# UO-31 renal = system: UO-31 renal
# SW-620 colon = system: SW-620 colon
# MDA-MB-231 breast = system: MDA-MB-231 breast
# K-562 leukemia = system: K-562 leukemia
# OVCAR-4 ovarian = system: OVCAR-4 ovarian
# NCI-H460 lung = system: NCI-H460 lung
# SNB-78 CNS = system: SNB-78 CNS
# DU-145 prostate = system: DU-145 prostate
# PC-3 prostate = system: PC-3 prostate
# DLD-1 colon = system: DLD-1 colon
# M19-MEL melanoma = system: M19-MEL melanoma
smiles,measurement,setting,value
CN(C)C(=S)NC(=S)Nc1ccc2ccccc2c1,TGI,HOP-62 NSCLC,46.2 µM
same,TGI,RPMI-8226 leukemia,45 µM
same,TGI,HCC-2998 colon,36.6 µM
same,TGI,U251 CNS,> 46.9 µM
same,TGI,T-47D breast,46 µM
same,TGI,LXFL 529 NSCLC,21.9 µM
same,TGI,SK-OV-3 ovarian,55.3 µM
same,TGI,SF-539 CNS,31.6 µM
same,TGI,SNB-19 CNS,> 72.1 µM
same,TGI,IGROV1 ovarian,34.6 µM
same,TGI,M14 melanoma,50.4 µM
same,TGI,MOLT-4 leukemia,34.4 µM
same,TGI,HCT-15 colon,59.9 µM
same,TGI,SK-MEL-2 melanoma,41.6 µM
same,TGI,CAKI-1 renal,65.3 µM
same,TGI,KM20L2 colon,23.7 µM
same,TGI,SN12C renal,31.9 µM
same,TGI,NCI-H226 lung,31.5 µM
same,TGI,EKVX NSCLC,51.1 µM
same,TGI,UACC-62 melanoma,26.9 µM
same,TGI,SNB-75 CNS,62.5 µM
same,TGI,MALME-3M melanoma,35.1 µM
same,TGI,HCT-116 colon,27 µM
same,TGI,MCF7 breast,37.1 µM
same,TGI,SK-MEL-28 melanoma,40.3 µM
same,TGI,A498 renal,48.3 µM
same,TGI,HT29 colon,25.3 µM
same,TGI,UACC-257 melanoma,24.2 µM
same,TGI,CCRF-CEM leukemia,10.5 µM
same,TGI,SF-295 CNS,18.8 µM
same,TGI,COLO 205 colon,39 µM
same,TGI,KM12 colon,37.6 µM
same,TGI,786-0 renal,> 64.8 µM
same,TGI,LOX IMVI melanoma,19.6 µM
same,TGI,MDA-MB-435,68 µM
same,TGI,BT-549 breast,53.9 µM
same,TGI,OVCAR-5 ovarian,60.1 µM
same,TGI,HL-60(TB) leukemia,51.7 µM
same,TGI,A549 NSCLC,> 31.5 µM
same,TGI,SR leukemia,35.8 µM
same,TGI,HS 578T breast,97.8 µM
same,TGI,HOP-92 NSCLC,48.1 µM
same,TGI,RXF 393 renal,65.8 µM
same,TGI,DMS 273 small cell lung,14.1 µM
same,TGI,NCI-H522 lung,32 µM
same,TGI,SF-268 CNS,47.3 µM
same,TGI,OVCAR-8 ovarian,68.8 µM
same,TGI,NCI/ADR-RES ovarian,59.6 µM
same,TGI,ACHN renal,> 83 µM
same,TGI,NCI-H23 lung,43.9 µM
same,TGI,OVCAR-3 ovarian,57.8 µM
same,TGI,TK-10 renal,> 89.4 µM
same,TGI,SK-MEL-5 melanoma,25 µM
same,TGI,MDA-N,42.1 µM
same,TGI,XF 498 CNS,33.3 µM
same,TGI,UO-31 renal,48 µM
same,TGI,SW-620 colon,> 75.2 µM
same,TGI,MDA-MB-231 breast,48.1 µM
same,TGI,K-562 leukemia,23.3 µM
same,TGI,OVCAR-4 ovarian,> 100 µM
same,TGI,NCI-H460 lung,22.4 µM
same,TGI,SNB-78 CNS,77.5 µM
same,TGI,DU-145 prostate,77.9 µM
same,TGI,PC-3 prostate,38.3 µM
CCc1n[nH]c(=S)n1/N=C/c1ccc(-c2ccc([N+](=O)[O-])cc2)o1,TGI,HOP-62 NSCLC,> 100 µM
same,TGI,RPMI-8226 leukemia,> 100 µM
same,TGI,HCC-2998 colon,> 100 µM
same,TGI,U251 CNS,> 100 µM
same,TGI,LXFL 529 NSCLC,> 100 µM
same,TGI,SK-OV-3 ovarian,> 100 µM
same,TGI,SF-539 CNS,> 100 µM
same,TGI,SNB-19 CNS,> 100 µM
same,TGI,IGROV1 ovarian,> 100 µM
same,TGI,M14 melanoma,> 100 µM
same,TGI,MOLT-4 leukemia,> 100 µM
same,TGI,HCT-15 colon,> 100 µM
same,TGI,SK-MEL-2 melanoma,> 100 µM
same,TGI,CAKI-1 renal,> 100 µM
same,TGI,KM20L2 colon,> 100 µM
same,TGI,SN12C renal,> 100 µM
same,TGI,NCI-H226 lung,> 100 µM
same,TGI,UACC-62 melanoma,> 100 µM
same,TGI,SNB-75 CNS,> 100 µM
same,TGI,MALME-3M melanoma,> 100 µM
same,TGI,DLD-1 colon,> 100 µM
same,TGI,HCT-116 colon,> 100 µM
same,TGI,SK-MEL-28 melanoma,> 100 µM
same,TGI,HT29 colon,> 100 µM
same,TGI,UACC-257 melanoma,> 100 µM
same,TGI,SF-295 CNS,> 100 µM
same,TGI,COLO 205 colon,> 100 µM
same,TGI,KM12 colon,> 100 µM
same,TGI,786-0 renal,> 100 µM
same,TGI,LOX IMVI melanoma,> 100 µM
same,TGI,OVCAR-5 ovarian,> 100 µM
same,TGI,HL-60(TB) leukemia,> 100 µM
same,TGI,A549 NSCLC,> 100 µM
same,TGI,SR leukemia,> 100 µM
same,TGI,HOP-92 NSCLC,> 100 µM
same,TGI,DMS 273 small cell lung,> 100 µM
same,TGI,NCI-H522 lung,> 100 µM
same,TGI,SF-268 CNS,> 100 µM
same,TGI,OVCAR-8 ovarian,> 100 µM
same,TGI,ACHN renal,> 100 µM
same,TGI,NCI-H23 lung,> 100 µM
same,TGI,OVCAR-3 ovarian,> 100 µM
same,TGI,TK-10 renal,> 100 µM
same,TGI,XF 498 CNS,> 100 µM
same,TGI,UO-31 renal,> 100 µM
same,TGI,SW-620 colon,> 100 µM
same,TGI,K-562 leukemia,> 100 µM
same,TGI,OVCAR-4 ovarian,> 100 µM
same,TGI,NCI-H460 lung,> 100 µM
same,TGI,SNB-78 CNS,> 100 µM
same,TGI,M19-MEL melanoma,> 100 µM
